This is an account of results in publication PMC3105219 (Neuropharmacology, 2011).

As a reminder, the IC50 is the concentration that inhibits the measured activity by half.

The target of one assay is mNET Y151F (Mus musculus, UniProt O55192, Y151F). Briefly: Uptake inhibition, mNET Y151F mutant. The assay is classed as cell-based. As to conditions: for IC50: read-out: IC50 uptake inhibition, mNET Y151F, mean ± SEM.
The subject of a further assay is DAT. As to conditions: ref Carroll et al., 1995, cited from earlier work.
For the next assay, the target named is mDAT F155Y (Mus musculus, UniProt Q61327, F155Y). Kind of assay: Uptake inhibition, mDAT F155Y mutant. The assay is classed as cell-based. As to conditions: for IC50: read-out: IC50 uptake inhibition, mDAT F155Y, mean ± SEM.
Sequence of mDAT F155Y (Q61327 whole entry F155Y): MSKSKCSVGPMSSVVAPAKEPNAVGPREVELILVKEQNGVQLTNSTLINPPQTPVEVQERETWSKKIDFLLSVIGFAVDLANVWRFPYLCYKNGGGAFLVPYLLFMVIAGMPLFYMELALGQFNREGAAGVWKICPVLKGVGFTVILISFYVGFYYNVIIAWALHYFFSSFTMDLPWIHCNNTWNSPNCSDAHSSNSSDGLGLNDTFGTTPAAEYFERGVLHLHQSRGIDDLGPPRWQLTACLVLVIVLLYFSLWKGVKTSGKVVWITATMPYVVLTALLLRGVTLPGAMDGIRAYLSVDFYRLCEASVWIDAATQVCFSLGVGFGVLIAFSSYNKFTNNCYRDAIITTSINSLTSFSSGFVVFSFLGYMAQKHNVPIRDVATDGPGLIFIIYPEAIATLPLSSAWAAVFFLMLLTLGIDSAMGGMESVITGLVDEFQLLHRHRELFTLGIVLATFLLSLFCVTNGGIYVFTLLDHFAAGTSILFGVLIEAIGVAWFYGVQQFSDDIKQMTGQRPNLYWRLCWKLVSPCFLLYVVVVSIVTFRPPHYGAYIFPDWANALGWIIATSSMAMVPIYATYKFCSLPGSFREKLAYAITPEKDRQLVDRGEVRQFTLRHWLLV
In another assay the test system is NET. As to conditions: ref Carroll et al., 1995, cited from earlier work.
For the next assay, the target named is mNET Y151T (Mus musculus, UniProt O55192, Y151T). Kind of assay: Uptake inhibition, mNET Y151T mutant. The assay is classed as cell-based. As to conditions: read-out: RTI-113 IC50 [nM] uptake inhibition, mean ± SEM.
Sequence of mNET Y151T (O55192 whole entry Y151T): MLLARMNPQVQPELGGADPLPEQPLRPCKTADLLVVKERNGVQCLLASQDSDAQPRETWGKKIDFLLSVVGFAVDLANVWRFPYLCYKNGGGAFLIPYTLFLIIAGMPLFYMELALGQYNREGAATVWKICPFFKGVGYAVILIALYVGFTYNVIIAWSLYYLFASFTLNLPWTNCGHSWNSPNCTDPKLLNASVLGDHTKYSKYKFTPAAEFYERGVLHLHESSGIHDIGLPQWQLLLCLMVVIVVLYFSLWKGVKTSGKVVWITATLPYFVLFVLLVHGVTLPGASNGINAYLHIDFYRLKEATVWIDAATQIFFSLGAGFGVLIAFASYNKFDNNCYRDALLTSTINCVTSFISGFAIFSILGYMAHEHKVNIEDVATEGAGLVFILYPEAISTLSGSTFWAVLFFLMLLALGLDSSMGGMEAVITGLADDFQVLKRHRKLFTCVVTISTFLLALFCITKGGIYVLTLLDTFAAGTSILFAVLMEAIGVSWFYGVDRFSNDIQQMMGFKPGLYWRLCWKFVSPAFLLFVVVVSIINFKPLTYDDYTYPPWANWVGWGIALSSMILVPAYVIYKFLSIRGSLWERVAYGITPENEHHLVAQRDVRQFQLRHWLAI
The next assay concerns the target mNET Y151E (Mus musculus, UniProt O55192, Y151E). Briefly: Uptake inhibition, mNET Y151E mutant. As to conditions: read-out: RTI-113 IC50 [nM] uptake inhibition, mean ± SEM. It is filed as cell-based.
A further assay addresses mNET Y151W (Mus musculus, UniProt O55192, Y151W). Briefly: Uptake inhibition, mNET Y151W mutant. As to conditions: read-out: RTI-113 IC50 [nM] uptake inhibition, mean ± SEM. It is filed as cell-based.
In a further assay the target is mNET Y151A (Mus musculus, UniProt O55192, Y151A). Briefly: Uptake inhibition, mNET Y151A mutant. The assay is classed as cell-based. As to conditions: read-out: RTI-113 IC50 [nM] uptake inhibition, mean ± SEM.
Sequence of mNET Y151A (O55192 whole entry Y151A): as the sequence (O55192 whole entry Y151T) above, with T151A counted along it
The target in the next assay is mNET Y151I (Mus musculus, UniProt O55192, Y151I). Briefly: Uptake inhibition, mNET Y151I mutant. The assay is classed as cell-based. As to conditions: read-out: RTI-113 IC50 [nM] uptake inhibition, mean ± SEM.
Sequence of mNET Y151I (O55192 whole entry Y151I): as the sequence (O55192 whole entry Y151T) above, with T151I counted along it
The target in assay [1] is mNET-TM3m (Y151F/S159A/Y161H) (Mus musculus, UniProt O55192, S159A/Y151F/Y161H). Kind of assay: Uptake inhibition, mNET-TM3m mutant. The assay is classed as cell-based. As to conditions: read-out: RTI-113 IC50 [nM] uptake inhibition, mean ± SEM.
Sequence of mNET-TM3m (Y151F/S159A/Y161H) (O55192 whole entry Y151F/S159A/Y161H): as the sequence (O55192 whole entry Y151T) above, with T151F, S159A, Y161H counted along it
A further assay concerns the target mNET Y151Q (Mus musculus, UniProt O55192, Y151Q). Kind of assay: Uptake inhibition, mNET Y151Q mutant. As to conditions: read-out: RTI-113 IC50 [nM] uptake inhibition, mean ± SEM. The assay is classed as cell-based.
The next assay has as its target mNET Y151N (Mus musculus, UniProt O55192, Y151N). Kind of assay: Uptake inhibition, mNET Y151N mutant. It is filed as cell-based. As to conditions: read-out: RTI-113 IC50 [nM] uptake inhibition, mean ± SEM.
The next assay has as its target mNET Y151M (Mus musculus, UniProt O55192, Y151M). Briefly: Uptake inhibition, mNET Y151M mutant. It is filed as cell-based. As to conditions: read-out: RTI-113 IC50 [nM] uptake inhibition, mean ± SEM.
The next assay concerns the target mNET Y151C (Mus musculus, UniProt O55192, Y151C). Kind of assay: Uptake inhibition, mNET Y151C mutant. The assay is classed as cell-based. As to conditions: read-out: RTI-113 IC50 [nM] uptake inhibition, mean ± SEM.
The target in a further assay is mNET Y151S (Mus musculus, UniProt O55192, Y151S). Kind of assay: Uptake inhibition, mNET Y151S mutant. It is filed as cell-based. As to conditions: read-out: RTI-113 IC50 [nM] uptake inhibition, mean ± SEM.
Sequence of mNET Y151S (O55192 whole entry Y151S): as the sequence (O55192 whole entry Y151T) above, with T151S counted along it
For the next assay, the target named is mNET Y151K (Mus musculus, UniProt O55192, Y151K). Kind of assay: Uptake inhibition, mNET Y151K mutant. It is filed as cell-based. As to conditions: read-out: RTI-113 IC50 [nM] uptake inhibition, mean ± SEM.
Sequence of mNET Y151K (O55192 whole entry Y151K): as the sequence (O55192 whole entry Y151T) above, with T151K counted along it
Assay [2] addresses mNET-TM8m (A415T/L418I/S421A/A427S/A433V/D435E) (Mus musculus, UniProt O55192, A414T/A426S/A432V/D434E/L417I/S420A). Kind of assay: Uptake inhibition, mNET-TM8m mutant. The assay is classed as cell-based. As to conditions: read-out: RTI-113 IC50 [nM] uptake inhibition, mean ± SEM.
A further assay addresses mNET Y151D (Mus musculus, UniProt O55192, Y151D). Kind of assay: Uptake inhibition, mNET Y151D mutant. As to conditions: read-out: RTI-113 IC50 [nM] uptake inhibition, mean ± SEM. It is filed as cell-based.
The target of assay [3] is mNET-TM6m (T306S/I315V/F316C/A321) (Mus musculus, UniProt O55192, A321V/F316C/I315V/T306S). Briefly: Uptake inhibition, mNET-TM6m mutant. The assay is classed as cell-based. As to conditions: read-out: RTI-113 IC50 [nM] uptake inhibition, mean ± SEM.
Sequence of mNET-TM6m (T306S/I315V/F316C/A321) (O55192 whole entry T306S/I315V/F316C/A321V): as the sequence (O55192 whole entry Y151T) above, with T151Y, T306S, I315V, F316C, A321V counted along it
The target of a further assay is mNET Y151L (Mus musculus, UniProt O55192, Y151L). Kind of assay: Uptake inhibition, mNET Y151L mutant. As to conditions: read-out: RTI-113 IC50 [nM] uptake inhibition, mean ± SEM. The assay is classed as cell-based.
Sequence of mNET Y151L (O55192 whole entry Y151L): as the sequence (O55192 whole entry Y151T) above, with T151L counted along it
In the next assay the target is mNET Y151G (Mus musculus, UniProt O55192, Y151G). Briefly: Uptake inhibition, mNET Y151G mutant. It is filed as cell-based. As to conditions: read-out: RTI-113 IC50 [nM] uptake inhibition, mean ± SEM.
Sequence of mNET Y151G (O55192 whole entry Y151G): as the sequence (O55192 whole entry Y151T) above, with T151G counted along it
Another assay has as its target mNET Y151V (Mus musculus, UniProt O55192, Y151V). Briefly: Uptake inhibition, mNET Y151V mutant. The assay is classed as cell-based. As to conditions: read-out: RTI-113 IC50 [nM] uptake inhibition, mean ± SEM.
In another assay the target is mDAT (Mus musculus, UniProt Q61327). Briefly: Inhibition of [3H]dopamine uptake, wild type mDAT in transfected HeLa cells. The assay is classed as cell-based.
Sequence of mDAT (Q61327 whole entry): as the sequence (Q61327 whole entry F155Y) above, with Y155F counted along it
The next assay deals with mNET (Mus musculus, UniProt O55192). It is filed as cell-based.
Sequence of mNET (O55192 whole entry): as the sequence (O55192 whole entry Y151T) above, with T151Y counted along it

The structures appear in SMILES notation.

Sequence of mNET Y151F (O55192 whole entry Y151F): as the sequence (O55192 whole entry Y151T) above, with T151F counted along it
Sequence of mNET-TM8m (A415T/L418I/S421A/A427S/A433V/D435E) (O55192 whole entry A414T/L417I/S420A/A426S/A432V/D434E): as the sequence (O55192 whole entry Y151T) above, with T151Y, A414T, L417I, S420A, A426S, A432V, D434E counted along it
Sequence of mNET Y151E (O55192 whole entry Y151E): as the sequence (O55192 whole entry Y151T) above, with T151E counted along it
Sequence of mNET Y151M (O55192 whole entry Y151M): as the sequence (O55192 whole entry Y151T) above, with T151M counted along it
Sequence of mNET Y151Q (O55192 whole entry Y151Q): as the sequence (O55192 whole entry Y151T) above, with T151Q counted along it
Sequence of mNET Y151V (O55192 whole entry Y151V): as the sequence (O55192 whole entry Y151T) above, with T151V counted along it
Sequence of mNET Y151C (O55192 whole entry Y151C): as the sequence (O55192 whole entry Y151T) above, with T151C counted along it
Sequence of mNET Y151N (O55192 whole entry Y151N): as the sequence (O55192 whole entry Y151T) above, with T151N counted along it
Sequence of mNET Y151D (O55192 whole entry Y151D): as the sequence (O55192 whole entry Y151T) above, with T151D counted along it
Sequence of mNET Y151W (O55192 whole entry Y151W): as the sequence (O55192 whole entry Y151T) above, with T151W counted along it

As for `COC(=O)[C@H]1[C@@H](c2ccc(Cl)cc2)C[C@H]2CC[C@H]1N2C` [RTI-31], the results for the 50% inhibitory concentration (IC50) on mNET Y151F and at mDAT F155Y were 1.44 ± 0.67 nM and 1.65 ± 1.19 nM, respectively. Further, in the assay with DAT (times more potent than cocaine), the “potency in inhibiting DAT compared with cocaine” value is 100 x. For the same molecule, the “potency in inhibiting NET compared with cocaine” value in the assay with NET (times more potent than cocaine) is listed as 100 x.

Consider `CN1[C@H]2CC[C@@H]1[C@@H](C(=O)Oc1ccccc1)[C@@H](c1ccc(Cl)cc1)C2` [RTI-113], for which the IC50 on mNET Y151T came to 115 ± 33.2 nM; at mNET Y151E, 770 ± 55.3 nM; on mNET Y151W it was 256 ± 66.9 nM; at mNET Y151A, 130 ± 15.1 nM; on mNET Y151I, 199 ± 65.1 nM; in [1], 1.89 ± 1.29 nM. Besides, the IC50 amounted to 831 ± 69 nM on mNET Y151Q; 12.1 ± 0.8 nM on mNET Y151F; 291 ± 51.5 nM on mNET Y151N; 679 ± 174 nM at mNET Y151M; 211 ± 23 nM at mNET Y151C; 13.4 ± 1.9 nM at mDAT F155Y. The 50% inhibitory concentration (IC50) came out at 99.3 ± 43.8 nM on mNET Y151S; 453 ± 71 nM at mNET Y151K; 269 ± 35.8 nM in [2]; 306 ± 105 nM on mNET Y151D; 341 ± 77.2 nM in [3]; 342 ± 110 nM at mNET Y151L. The IC50 is 165 ± 28.4 nM at mNET Y151G and 181 ± 81.1 nM at mNET Y151V. Also, the “increase in potency for inhibition of substrate uptake” value on mNET Y151F (mNET-Y151F versus wild type mNET) amounted to 14 fold. The “potency at inhibiting DAT relative to inhibiting NET” value with DAT (DAT over NET selectivity, stated in abstract) is 100 x. Also, the decrease in potency on mDAT F155Y (mDAT-F155Y versus wild type mDAT) worked out at 20 fold. Moreover, the “loss of potency to NET compared with RTI-31” value in the assay on NET (times less potent than RTI-31) is recorded as “about 100 times”.

As to `COC(=O)[C@H]1[C@@H](OC(=O)c2ccccc2)C[C@@H]2CC[C@H]1N2C` [cocaine], the IC50 against mDAT turned out to be 318 ± 126 nM; on mNET, 398 ± 66.8 nM.
